Assay results reported in publication PMC6881293, “Nanomolar-potency ‘co-potentiator’ therapy for cystic fibrosis caused by a defined subset of minimal function CFTR mutants” (Scientific Reports, 2019).

Columns and labels:
W1282X-CFTR [1] = biological target: T1, W1282X-CFTR (Homo sapiens, UniProt P13569); design: method as in PMID 27895116, PMID 29903467; conditions: transfected FRT cells expressing CFTR1281 (truncation product of W1282X-CFTR); cited from earlier work
T1 construct: expressed in transfected cells
T1 sequence (P13569 1-1281 limits assumed): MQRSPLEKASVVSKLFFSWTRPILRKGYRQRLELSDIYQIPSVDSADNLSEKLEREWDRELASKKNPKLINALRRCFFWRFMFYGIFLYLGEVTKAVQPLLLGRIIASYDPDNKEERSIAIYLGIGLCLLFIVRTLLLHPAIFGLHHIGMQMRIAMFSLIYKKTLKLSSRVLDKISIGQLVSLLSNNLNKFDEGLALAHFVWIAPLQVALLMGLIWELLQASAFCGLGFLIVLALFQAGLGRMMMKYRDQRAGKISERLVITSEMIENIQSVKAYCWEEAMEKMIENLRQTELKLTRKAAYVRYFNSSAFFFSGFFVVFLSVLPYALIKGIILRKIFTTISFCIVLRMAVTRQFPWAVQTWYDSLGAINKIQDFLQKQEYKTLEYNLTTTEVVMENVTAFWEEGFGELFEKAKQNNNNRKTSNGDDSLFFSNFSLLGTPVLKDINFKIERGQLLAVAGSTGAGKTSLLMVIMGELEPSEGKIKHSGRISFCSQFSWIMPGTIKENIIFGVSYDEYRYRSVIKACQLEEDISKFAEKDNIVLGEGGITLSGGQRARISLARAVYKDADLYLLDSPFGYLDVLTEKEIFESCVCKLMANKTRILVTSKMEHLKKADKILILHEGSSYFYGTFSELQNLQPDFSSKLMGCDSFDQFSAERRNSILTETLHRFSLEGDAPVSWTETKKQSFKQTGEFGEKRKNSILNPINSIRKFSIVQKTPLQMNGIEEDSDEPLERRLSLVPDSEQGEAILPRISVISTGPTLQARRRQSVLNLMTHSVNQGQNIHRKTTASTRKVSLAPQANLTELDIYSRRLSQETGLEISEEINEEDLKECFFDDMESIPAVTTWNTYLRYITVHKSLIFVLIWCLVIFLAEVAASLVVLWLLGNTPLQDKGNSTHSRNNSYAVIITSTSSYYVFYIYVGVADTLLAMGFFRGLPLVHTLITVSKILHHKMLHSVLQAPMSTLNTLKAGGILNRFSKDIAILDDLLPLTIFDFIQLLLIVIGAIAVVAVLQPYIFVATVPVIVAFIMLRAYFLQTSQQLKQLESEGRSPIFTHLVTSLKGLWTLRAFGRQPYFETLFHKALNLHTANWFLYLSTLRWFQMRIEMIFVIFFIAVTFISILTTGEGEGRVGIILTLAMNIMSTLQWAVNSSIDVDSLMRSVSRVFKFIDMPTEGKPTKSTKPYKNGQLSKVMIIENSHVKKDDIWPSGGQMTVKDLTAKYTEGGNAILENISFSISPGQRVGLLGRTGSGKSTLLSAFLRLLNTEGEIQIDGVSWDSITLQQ

N1303K-CFTR = biological target: T2, N1303K-CFTR (Homo sapiens, UniProt P13569, N1303K); assay: Short-circuit current in gene-edited 16HBE14o- cells expressing N1303K-CFTR (16HBE-N1303Kge); assay type: cell-based; conditions: 16HBE-N1303Kge cells; 20 µM compound after 20 µM forskolin and 5 µM VX-770
T2 construct: expressed in transfected cells
T2 sequence (P13569 whole entry N1303K): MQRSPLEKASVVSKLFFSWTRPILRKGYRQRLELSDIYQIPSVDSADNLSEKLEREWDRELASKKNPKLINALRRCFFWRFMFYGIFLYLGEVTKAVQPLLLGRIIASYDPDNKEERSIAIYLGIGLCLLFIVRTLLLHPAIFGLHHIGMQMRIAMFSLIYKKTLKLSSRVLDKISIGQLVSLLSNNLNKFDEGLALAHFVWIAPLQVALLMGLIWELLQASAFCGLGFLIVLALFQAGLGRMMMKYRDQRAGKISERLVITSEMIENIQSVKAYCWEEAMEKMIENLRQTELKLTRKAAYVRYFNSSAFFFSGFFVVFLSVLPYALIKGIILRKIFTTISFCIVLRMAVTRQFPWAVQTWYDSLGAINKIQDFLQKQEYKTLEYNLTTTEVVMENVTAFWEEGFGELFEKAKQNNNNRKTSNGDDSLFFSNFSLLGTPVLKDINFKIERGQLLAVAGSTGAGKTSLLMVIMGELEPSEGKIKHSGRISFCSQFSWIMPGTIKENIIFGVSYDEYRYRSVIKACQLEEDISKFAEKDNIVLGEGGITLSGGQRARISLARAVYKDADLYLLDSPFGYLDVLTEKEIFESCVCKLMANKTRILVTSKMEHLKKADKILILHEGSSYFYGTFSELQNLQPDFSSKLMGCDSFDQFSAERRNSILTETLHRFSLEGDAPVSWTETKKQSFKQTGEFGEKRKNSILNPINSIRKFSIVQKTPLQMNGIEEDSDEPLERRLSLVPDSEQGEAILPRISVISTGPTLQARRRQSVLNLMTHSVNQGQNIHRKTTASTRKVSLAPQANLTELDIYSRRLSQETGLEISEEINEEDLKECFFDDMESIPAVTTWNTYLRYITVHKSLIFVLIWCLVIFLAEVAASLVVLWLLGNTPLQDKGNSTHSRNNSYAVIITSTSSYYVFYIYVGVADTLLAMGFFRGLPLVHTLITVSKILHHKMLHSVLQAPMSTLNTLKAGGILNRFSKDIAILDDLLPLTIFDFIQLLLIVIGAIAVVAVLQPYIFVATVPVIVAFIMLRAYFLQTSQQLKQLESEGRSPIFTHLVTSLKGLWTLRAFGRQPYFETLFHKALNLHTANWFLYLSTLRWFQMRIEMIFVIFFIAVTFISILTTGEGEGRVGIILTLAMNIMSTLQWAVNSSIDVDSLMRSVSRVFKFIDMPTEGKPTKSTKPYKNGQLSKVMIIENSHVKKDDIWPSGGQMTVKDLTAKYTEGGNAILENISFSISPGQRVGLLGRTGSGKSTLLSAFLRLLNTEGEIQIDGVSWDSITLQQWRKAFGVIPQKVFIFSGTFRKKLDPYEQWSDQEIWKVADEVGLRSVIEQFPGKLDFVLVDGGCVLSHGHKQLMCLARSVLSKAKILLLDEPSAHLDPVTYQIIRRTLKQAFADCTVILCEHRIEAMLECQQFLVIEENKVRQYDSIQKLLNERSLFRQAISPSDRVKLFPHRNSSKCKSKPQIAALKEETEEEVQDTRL
Experimental: To test the efficacy of new co-potentiators in human airway cell models, short-circuit current was measured in 16HBE14o- human airway epithelial cells in which the endogenous CFTR gene was edited to contain the N1303K mutation (16HBE-N1303Kge[21]) and in primary cultures of human bronchial epithelial cells from a N1303K homozygous CF subject. Addition of forskolin and then VX-770 to 16HBE-N1303Kge cells gave a limited response (Fig. 6A). Subsequent addition of CP-A061 or CP-D123 produced CFTRinh-172-inhibitable responses of ~10 μA/cm^2, ~6-fold greater that that produced by VX-770 alone. Increased short-circuit current was also found for these co-potentiators in the primary human bronchial epithelial cell cultures (Fig. 6B).
Figure 6 N1303K-CFTR activity in human airway epithelial cell cultures. (A) Short-circuit current in gene-edited 16HBE14o- cells expressing N1303K-CFTR. Concentrations: 20 µM amiloride, 20 µM forskolin, 5 µM VX-770, 20 µM CP-A061 and CP-D123, and 10 µM CFTRinh-172. Representative original curves (left and center) and summary of changes in current (∆Isc) (right). Mean ± S.E.M., n = 3, *P < 0.05). (B) Short-circuit current in primary cultures of human bronchial epithelial cells from a homozygous N1303K-CFTR CF subject. […]
Short-circuit current was measured on cells cultured on Snapwell clear permeable supports (Corning) as described[10],[11]. […]

W1282X-CFTR [2] = biological target: T1, W1282X-CFTR; assay: Structure-activity testing of analogs in FRT cells expressing W1282X-CFTR; assay type: cell-based
Experimental: To establish structure-activity relationships, 240 commercially available piperidinepyridoindole analogs and 160 pyrazoloquinoline analogs were tested in FRT cells expressing W1282X-CFTR. In general, the methoxy substituent on the 4-position (R^3) on the pyridoindole ring increased potency (compare A01 vs A534). N-methylation on the pyridoindole ring abolished activity (compare A534 vs A600). For substituent R^1 on the piperidine ring, substituted benzyl gave greatest activity (A061 and A662). Other R^1 substituents, including sulfonamide (A145), alkyl (A764) and carbocyclic (A714), reduced activity. Changing the benzylic carbon from methylene (CH2) to ketone (C=O) abolished activity (A815, A350 and A956).
For R^3, pyridine (D003), benzyl (D035) and substituted methyl-pyrazole (D086) abolished activity. […] The D123 pyrazoloquinoline with R^3 substituted with thiophene-quinoline heterocycle gave the best potency.

For `CCCCn1cc(S(=O)(=O)Nc2ccc(CC)cc2)c2cccnc21` [ASP-11], which “increase in chloride current over that produced by a high concentration of VX-770” value (W1282X-CFTR [1]) is on record?
Its value is ~ 8 fold.

For `COc1ccc2[nH]c3c(c2c1)CCNC31CCN(Cc2ccc(F)cc2F)CC1` [Compound A061], which “CFTRinh-172-inhibitable short-circuit current response” value (N1303K-CFTR) is on record?
Its value is ~ 10 μA/cm^2.

What about the “response relative to that produced by VX-770 alone” value (N1303K-CFTR) of the same compound?
The value was ~ 6 fold.

And the “Relative Vmax (%)” value (W1282X-CFTR [2]; Table 1, 100% Vmax corresponds to 20 μM ASP-11)?
The value was 100%.

And the EC50 (W1282X-CFTR [2]; Table 1, piperidine-pyridoindole analogs)?
The EC50 was 2000 nM.
